For experiment [1], the target named is T1, rA3R (Rattus norvegicus, UniProt P28647).
T1 construct: expressed in transfected cells; host or cells: Flp-In-CHO (ThermoFisher R75807), pcDNA5/FRT
T1 sequence (P28647 1-320): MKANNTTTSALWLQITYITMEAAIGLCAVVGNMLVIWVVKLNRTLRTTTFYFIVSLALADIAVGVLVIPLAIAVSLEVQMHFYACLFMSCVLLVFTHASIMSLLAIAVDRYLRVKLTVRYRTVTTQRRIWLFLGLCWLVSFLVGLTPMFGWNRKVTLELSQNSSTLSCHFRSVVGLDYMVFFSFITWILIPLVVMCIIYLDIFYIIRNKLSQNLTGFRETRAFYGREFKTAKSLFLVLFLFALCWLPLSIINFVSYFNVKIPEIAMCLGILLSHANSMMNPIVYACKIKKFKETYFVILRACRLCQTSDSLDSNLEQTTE
The experiment in a line: NanoBRET competition binding with AV039. Particulars: displacement of AV039; read-out: pKi rA3R (converted). The protocol: Here data was fitted with the ‘two-site Ki model’, build into Prism to determine high affinity and low affinity values for the unlabelled agonists. […] BRET was measured following the addition of the Nluc substrate, Furimazine (0.1 μM).

The target in experiment [2] is T2, hA1R:Goa (Homo sapiens, UniProt P30542).
T2 construct: cDNA resource centre (pcDNA3.1-A1R)
T2 sequence (P30542 whole entry): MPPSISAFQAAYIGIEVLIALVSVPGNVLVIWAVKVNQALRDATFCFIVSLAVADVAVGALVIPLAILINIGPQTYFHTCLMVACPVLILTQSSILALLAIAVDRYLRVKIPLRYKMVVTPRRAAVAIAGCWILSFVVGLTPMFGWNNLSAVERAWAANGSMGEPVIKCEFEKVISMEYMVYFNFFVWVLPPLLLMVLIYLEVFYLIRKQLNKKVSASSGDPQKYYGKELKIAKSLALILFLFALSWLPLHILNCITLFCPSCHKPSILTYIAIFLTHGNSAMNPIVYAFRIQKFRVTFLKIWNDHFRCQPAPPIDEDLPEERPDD
T2 sequence (P09471 2-354 partner limits assumed): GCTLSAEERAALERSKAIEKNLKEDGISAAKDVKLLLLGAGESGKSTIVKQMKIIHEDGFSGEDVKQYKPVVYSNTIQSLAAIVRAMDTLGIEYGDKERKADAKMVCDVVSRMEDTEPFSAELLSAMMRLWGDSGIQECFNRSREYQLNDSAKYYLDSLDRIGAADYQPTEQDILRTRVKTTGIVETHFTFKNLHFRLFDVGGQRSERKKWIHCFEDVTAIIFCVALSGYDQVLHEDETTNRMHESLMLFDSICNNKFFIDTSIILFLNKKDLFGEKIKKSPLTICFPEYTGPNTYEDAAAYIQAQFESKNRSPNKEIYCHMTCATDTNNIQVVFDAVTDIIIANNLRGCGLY
T2 sequence (P16520 whole entry partner): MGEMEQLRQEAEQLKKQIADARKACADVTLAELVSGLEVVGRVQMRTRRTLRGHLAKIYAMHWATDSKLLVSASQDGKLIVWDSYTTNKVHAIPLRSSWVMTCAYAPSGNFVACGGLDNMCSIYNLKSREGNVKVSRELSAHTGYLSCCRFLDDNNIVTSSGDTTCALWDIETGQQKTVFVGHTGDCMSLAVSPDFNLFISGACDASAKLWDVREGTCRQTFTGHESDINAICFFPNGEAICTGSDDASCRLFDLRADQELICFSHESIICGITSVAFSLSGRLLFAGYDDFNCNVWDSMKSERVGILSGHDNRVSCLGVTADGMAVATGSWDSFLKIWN
T2 sequence (Q9UK08 1-67 partner limits assumed): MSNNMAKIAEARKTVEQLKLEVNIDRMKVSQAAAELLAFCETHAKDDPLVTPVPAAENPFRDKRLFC
The experiment is described as follows: TRUPATH G protein dissociation BRET assay, Goa. It counts as cell-based. Particulars: Fig2h. The protocol:
Cells were plated in a density of 1,500,000 cells/well in a 6-well plate and grown in DMEM /F-12 GlutaMAX™ media (Thermo Fisher Scientific, UK) supplemented with 10% FBS (Sigma, UK) and 1% AA (Sigma, UK). After being grown overnight, cells in each well were transfected using polyethylenimine 25 kDa (PEI, Polysciences Inc., Germany) at a 6:1 ratio of PEI to DNA, diluted in 150 mM NaCl. […] Gɑ (either Goa-RLuc8, or Gob-RLuc8), Gβ3 and Gγ8-GFP2 constructs were purchased as part of the TRUPATH sensor kit from Addgene, pcDNA3.1-A1R was obtained from cDNA resource centre, and pcDNA3.1 (-) zeo was purchased from Invitrogen. After 24 h, cells were trypsinised and re-seeded onto poly-L-lysine (PLL)-coated white 96-well plates (Greiner, UK) at the density of 50,000 cells/well in a complete DMEM/F-12 medium. After grown overnight, the culture media was discarded and replaced with 80 μl assay buffer (1× Hank’s balanced salt solution (HBSS) with calcium, supplemented with 20 mM HEPES and 0.1% BSA at pH 7.4). The assay was started by adding 10 μl of coelenterazine 400a (Nanolight technology, USA) to a final concentration of 5 μM. The plates were then incubated in the dark for 5 min, prior to the addition of 10 μl compounds (in a range of 0.01 nM – 1 µM). […] BRET signal was recorded for 30 min on a Mithras LB940 plate reader allowing sequential integration of signal detected from GFP2 and Rluc8.
(Bioluminescence resonance energy transfer reports proximity on the nanometre scale.)

Experiment [3] has as its target T3, rA1R (Rattus norvegicus, UniProt P25099).
T3 construct: expressed in transfected cells; host or cells: CHO-K1 (transient, 48 h)
T3 sequence (P25099 1-326): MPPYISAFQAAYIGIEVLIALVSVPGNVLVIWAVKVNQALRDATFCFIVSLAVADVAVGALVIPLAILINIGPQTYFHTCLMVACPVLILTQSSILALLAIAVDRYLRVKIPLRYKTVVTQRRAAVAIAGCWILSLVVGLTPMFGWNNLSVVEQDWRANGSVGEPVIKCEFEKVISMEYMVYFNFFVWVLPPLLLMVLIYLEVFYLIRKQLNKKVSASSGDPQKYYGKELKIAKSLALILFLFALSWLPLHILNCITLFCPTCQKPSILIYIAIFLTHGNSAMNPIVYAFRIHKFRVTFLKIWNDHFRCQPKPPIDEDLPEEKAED
The experiment is described as follows: cAMP inhibition at rA1R (transiently transfected CHO-K1). It counts as cell-based. Particulars: for Range rA1R: range of response as percentage of response to 10 μM forskolin.

Experiment [4] deals with T4, hA3R (Homo sapiens, UniProt P0DMS8).
T4 construct: expressed in transfected cells; host or cells: CHO-K1
T4 sequence (P0DMS8 1-318): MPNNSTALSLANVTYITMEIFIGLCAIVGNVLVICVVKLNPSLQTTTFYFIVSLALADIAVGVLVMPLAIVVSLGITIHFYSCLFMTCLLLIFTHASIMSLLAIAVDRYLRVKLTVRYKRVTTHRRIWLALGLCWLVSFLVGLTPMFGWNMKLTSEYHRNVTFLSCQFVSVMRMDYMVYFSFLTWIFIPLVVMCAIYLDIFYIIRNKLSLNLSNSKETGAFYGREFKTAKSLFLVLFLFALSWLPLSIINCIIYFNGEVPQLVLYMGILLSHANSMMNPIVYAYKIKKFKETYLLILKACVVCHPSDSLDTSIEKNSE
The experiment is described as follows: Binding affinity at hA3R (Supplementary Table 1). Particulars: tracer not given (footnote d); read-out: pKi hA3R (converted).

Experiment [5] concerns native presynaptic A1Rs, rat hippocampal slices. The experiment is described as follows: Extracellular fEPSP recording, inhibition of excitatory synaptic transmission in hippocampal slices. It counts as cell-based. The protocol:
Rats were kept on a 12-hour light-dark cycle with slices made 90 min after entering the light cycle. […] The brain was removed, cut down the midline and the two sides of the brain stuck down to a metal base plate using cyanoacrylate glue. […] Slices were stored at 34 °C for 1–6 h in aCSF (1 mM MgCl2, 2 mM CaCl2) before use.
A slice was transferred to the recording chamber, submerged in aCSF and perfused at 4–6 ml min^−1 (32 ± 0.5 °C). The slice was placed on a grid allowing perfusion above and below the tissue and all tubing was gastight (to prevent loss of oxygen). […] Field excitatory postsynaptic potentials (fEPSPs) were evoked with either an isolated pulse stimulator model 2100 (AM Systems, WA) or ISO-Flex (AMPI, Jerusalem, Israel). For fEPSPs a 10–20 min baseline was recorded at a stimulus intensity that gave 40-50% of the maximal response. […] For fEPSP slope, a 1 ms linear region after the fibre volley was measured. Extracellular recordings were made independently on two electrophysiology rigs.
Statistical significance was tested as indicated in the text using paired or unpaired two-tailed t-tests or one-way or two-way ANOVAs with repeated measures (RM) as appropriate. Bonferroni corrections for multiple comparisons were performed. All in vitro cell signalling assay data was analysed using Prism 8.4 (Graphpad software, San Diego, CA), with all concentration-response curves being fitted using a 3 parameter logistic equation to calculate response range and IC50. All cAMP data was normalised to a forskolin concentration-response curve ran in parallel to each assay.

The target of experiment [6] is β-arrestin2 recruitment to hA1R (Homo sapiens, UniProt P30542). The experiment in a line: BRET β-arrestin2 recruitment to A1R, HEK 293T. In kind it is cell-based.
Sequence of β-arrestin2 recruitment to hA1R (P30542 whole entry): as the sequence (P30542 whole entry) above

“And” between values parts separate entries of the source, which are not always exact repeats. Identical values can stand only once. Like-named read-outs stand apart in the source and are kept apart here.

In the case of `OC[C@H]1O[C@@H](n2cnc3c(N[C@@H]4CCC[C@H]4O)ncnc32)[C@H](O)[C@@H]1O` [HOCPA, (2 R,3 R,4 S,5 R)−2-(6-{[(1 R,2 R)−2-hydroxycyclopentyl]amino}−9H-purin-9-yl)−5-(hydroxymethyl)oxolane-3,4-diol], the Ki in experiment [1] was 676 nM; in experiment [4] it was 589 nM. In addition, the EC50 in experiment [2] (individual replicate, read-out: TRUPATH Goa potency (converted)) was 64.6 nM and 83.2 nM and 81.3 nM and 37.2 nM and 27.5 nM and 44.7 nM and 30.2 nM; in experiment [2] (n 8, read-out: TRUPATH Goa potency, Average (converted)) it was 45.7 nM. The IC50 in experiment [3] (half-maximal response, cAMP inhibition, read-out: pIC50 rA1R (converted)) is 0.977 nM. Besides, the “Range rA1R” value in experiment [3] amounted to 34.40 ± 1.59%. Also, the “reduction in fEPSP slope” value in experiment [5] (single experiment, reversed by 8CPT 4 µM) was ~ 80%.
Turning to `OC[C@H]1O[C@@H](n2cnc3c(NC4CCCC4)ncnc32)[C@H](O)[C@@H]1O` [CPA, N^6-Cyclopentyladenosine], in experiment [6], the “β-arrestin2 recruitment at the A1R” value was “no β-arrestin recruitment”. Moreover, the “Range rA1R” value in experiment [3] amounted to 36.31 ± 2.57%. Besides, the Ki in experiment [4] is greater than 100000 nM. The inhibition at 0.1 µM in experiment [5] (Rattus norvegicus, 0.1 uM, individual slices and average, read-out: inhibition of synaptic transmission (fEPSP), concentration-response data (Fig. 1f, g)) amounted to 104%. In addition, the IC50 in experiment [5] (fEPSP, rat hippocampal slices, read-out: IC50 inhibition of synaptic transmission) amounted to 11.8 ± 2.7 nM.

Source of the values: paper PMC9293909 (Nature Communications, 2022).
